The text below walks through data of patent publication US8492589B2, “Alkynyl phenyl derivative compounds for treating ophthalmic diseases and disorders” (Acucela Inc., priority 2007, dated 2013).

This experiment has as its target T1, isomerase (Mus musculus, UniProt Q91ZQ5).
T1 construct: The recovery of 11-cis-retinal after bleaching can be used to estimate the activity of isomerase in vivo; from tissue; host or cells: eyes of living CD-1 and Balb/c male mice
T1 sequence (Q91ZQ5 1-533): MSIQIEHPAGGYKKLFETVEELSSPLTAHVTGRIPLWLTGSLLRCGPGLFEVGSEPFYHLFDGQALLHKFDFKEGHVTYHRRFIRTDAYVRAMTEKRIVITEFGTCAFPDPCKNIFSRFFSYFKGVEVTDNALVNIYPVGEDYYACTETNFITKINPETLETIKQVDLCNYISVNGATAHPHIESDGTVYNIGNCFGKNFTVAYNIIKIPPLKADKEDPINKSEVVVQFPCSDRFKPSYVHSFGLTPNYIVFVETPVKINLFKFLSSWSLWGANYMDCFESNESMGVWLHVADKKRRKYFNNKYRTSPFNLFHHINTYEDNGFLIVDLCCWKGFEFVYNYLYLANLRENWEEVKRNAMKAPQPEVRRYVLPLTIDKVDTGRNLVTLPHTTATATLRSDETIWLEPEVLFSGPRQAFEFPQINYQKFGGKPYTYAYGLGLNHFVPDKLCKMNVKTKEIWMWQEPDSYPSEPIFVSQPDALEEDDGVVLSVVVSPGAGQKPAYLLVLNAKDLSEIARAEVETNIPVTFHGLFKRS
In words: In vivo murine isomerase assay (recovery of 11-cis-retinal after photobleaching). The arrangement: species or system mice. The settings on record: for ED50 / inhibition in vivo at 1 mg/kg / inhibition in vivo at 5 mg/kg / inhibition at 1 mg/kg / inhibition at 5 mg/kg: mouse; for ED50 / inhibition at 1 mg/kg / inhibition at 5 mg/kg: po; for ED50: read-out: ED50 (dose of compound that gives 50% inhibition of 11-cis retinal (oxime) recovery), estimated, male Balb/c mice, HCl salts dosed orally in mg/kg; for ED50 / inhibition of isomerase activity in vivo (figure legend): photobleached 4 hours after dosing; for inhibition of isomerase activity in vivo (figure legend): oral dose response, Balb/c mice; for inhibition in vivo at 1 mg/kg / inhibition in vivo at 5 mg/kg: read-out: % Inibition; for isomerase inhibitory activity / inhibition at 1 mg/kg / inhibition at 5 mg/kg: CD1 male mice. The protocol: The capability of alkynyl phenyl-linked amine derivatives to inhibit isomerase is determined by an in vivo murine isomerase assay. Brief exposure of the eye to intense light (“photobleaching” of the visual pigment or simply “bleaching”) is known to photo-isomerize almost all 11-cis-retinal in the retina. The recovery of 11-cis-retinal after bleaching can be used to estimate the activity of isomerase in vivo. Delayed recovery, as represented by lower 11-cis-retinal oxime levels, indicates inhibition of isomerization reaction. Procedures were performed essentially as described by Golczak et al., Proc. Natl. Acad. Sci. […] See also Deigner et al., Science, 244: 968-71 (1989); […] Parish, et al., Proc. Natl. Acad. Sci. USA, 14609-13 (1998); […] Six-week old dark-adapted CD-1 (albino) male mice were orally gavaged with compound (0.03-3 mg/kg) dissolved in 100 μl corn oil containing 10% ethanol (five animals per group). […] After 2-24 hours in the dark, the mice were exposed to photobleaching of 5,000 lux of white light for 10 minutes. The mice were allowed to recover 2 hours in the dark. The animals were then sacrificed by carbon dioxide inhalation. Retinoids were extracted from the eye and the regeneration of 11-cis-retinal was assessed at various time intervals. All steps were performed in darkness with minimal redlight illumination (low light darkroom lights and […] flashlights for spot illumination as needed) (see, e.g., Maeda et al., J. Neurochem 85:944-956, 2003; Van Hooser et al., J Biol Chem 277:19173-82, 2002). After the mice were sacrificed, the eyes were immediately removed and placed in liquid nitrogen for storage. The eyes were placed in 500 μL of bis-tris propane buffer (10 mM, pH 7.3) and 20 μL of 0.8M hydroxile amine (pH-7.3). The eyes were cut up into small pieces with small iris scissors and then thoroughly homogenized at 30000 rpm with a mechanical homogenizer (Polytron PT 1300 D) in the tube until no visible tissue remained. 500 μL of methanol and 500 μL of heptane were added to each tube. The tubes were attached to a vortexer so that the contents were mixed thoroughly for 15 minutes in room temperature. […] The samples were analyzed on an Agilent 1100 HPLC system with normal phase column: SILICA (Beckman Coutlier, dp 5 μm, […]). The running method has a flow rate of 1.5 ml/min; solvent components are 15% solvent 1 (1% isopropanol in ethyl acetate), and 85% solvent 2 (100% hexanes). Loading volume for each sample is 100 μl; detection wavelength is 360 nm. The area under the curve for 11-cis retinal oxime was calculated by Agilent Chemstation software and was recorded manually. Data processing was performed using Prizm software. Positive control mice (no compound administered) were sacrificed fully dark-adapted and the eye retinoids analyzed. Light (bleached) control mice (no compound administered) were sacrificed and retinoids isolated and analyzed immediately after light treatment. […] Animals that received Compound 19 HCl were orally dosed with 0.01 and 1 mg/kg of compound in sterile water as solution, and photobleached 4 hours after dosing. Recovery and retinoid analysis were performed as described above. Dark control mice were vehicle-only treated, sacrificed fully dark adapted without light treatment, and analyzed. […] A time course study was performed to determine the isomerase inhibitory activity of Compounds 2, 18 and 19. Male Balb/c mice (4/group) received 3 mg Compound 2-HCl, Compound 18-HCl or Compound 19-HCl (in water) per kg bodyweight orally, by gavage. The animals were then “photo-bleached” (5000 Lux white light for 10 minutes) at 2, 4, 8, 16 and 24 hours after dosing, and returned to darkness to allow recovery of the 11-cis-retinal content of the eyes. Mice were sacrificed 2 hours after bleaching, eyes were enucleated, and retinoid content was analyzed by HPLC. A single dose study of the compound of Example 36 (Compound 36) was performed, at 1 mg/kg and 5 mg/kg oral dosing, 2, 4, 6, and 24 hours post bleaching. […]

Structures are written as SMILES. Like-named read-outs stand apart in the source and are kept apart here.

Regarding `CCCC(O)(C#Cc1cccc([C@H](O)CCN)c1)CCC` [Compound 100, (R)-4-((3-(3-Amino-1-Hydroxypropyl)Phenyl)Ethynyl)Heptan-4-ol], the ED50 is 0.2 mg/kg and the “inhibition of isomerase activity in vivo (figure legend)” value (from here on “inhibition of isomerase activity”) is given as “concentration-dependent inhibition”.
`CCCC(O)(C#Cc1cccc([C@@H](O)CCN)c1)CCC` [Compound 101, (S)-4-((3-(3-Amino-1-Hydroxypropyl)Phenyl)Ethynyl)Heptan-4-ol]: the ED50 is 0.38 mg/kg and the “inhibition of isomerase activity” value is listed as “concentration-dependent inhibition”.
Turning to `CCC(O)(C#Cc1cccc(CCCN)c1)CC` [Example 1, 1-(3-(3-Aminopropyl)phenyl)-3-ethylpent-1-yn-3-ol], the inhibition in vivo at 1 mg/kg is, setting by setting: (4 h) 3%; (24 h) 0%.
Take `CCCC(O)(C#Cc1cccc(CCCN)c1)CCC` [Example 2, 4-((3-(3-Aminopropyl)phenyl)ethynyl)heptan-4-ol]: the 50% effective dose (ED50) was 0.69 mg/kg and the “inhibition of isomerase activity” value is listed as “concentration-dependent inhibition”.
For the compound `CCCC(C#Cc1cccc(CCCN)c1)(CCC)OC` [Example 4, 3-(3-(3-Methoxy-3-propylhex-1-ynyl)phenyl)propan-1-amine], where the note is “4 h”, the inhibition in vivo at 1 mg/kg is 21% and the inhibition in vivo at 5 mg/kg worked out at 95%. Also, where the note is “24 h”, the inhibition in vivo at 1 mg/kg came to 0% and the inhibition in vivo at 5 mg/kg amounted to 0%.
`CC(C)(O)C#Cc1cccc(CCCN)c1` [Example 7, 4-(3-(3-Aminopropyl)phenyl)-2-methylbut-3-yn-2-ol]: the inhibition in vivo at 5 mg/kg (4 h) came out at 49% and the inhibition in vivo at 5 mg/kg (24 h) came out at 0%.
Taken in the same sequence, the figures for `CCCC(O)C#Cc1cccc(CCCN)c1` (stereo not shown) [Example 8, 1-(3-(3-Aminopropyl)phenyl)hex-1-yn-3-ol] were 0% and 0%.
With `NCCCc1cccc(C#CC2(O)CCCCC2)c1` [Example 11, 1-((3-(3-Aminopropyl)phenyl)ethynyl)cyclohexanol], under “4 h”, the inhibition in vivo at 1 mg/kg amounted to 0% and the inhibition in vivo at 5 mg/kg turned out to be 17%. Also, under “24 h”, the inhibition in vivo at 1 mg/kg was determined as 0% and the inhibition in vivo at 5 mg/kg was found to be 0%.
Regarding `CCCC(O)(C#Cc1cccc(OCCN)c1)CCC` [Example 18, 4-((3-(2-Aminoethoxy)phenyl)ethynyl)heptan-4-ol], the ED50 is 1.73 mg/kg and the “inhibition of isomerase activity” value was “concentration-dependent inhibition”.
Taken in the same sequence, the figures for `CCCC(O)(C#Cc1cccc(C(O)CCN)c1)CCC` (stereo not shown) [Example 19, 4-((3-(3-Amino-1-hydroxypropyl)phenyl)ethynyl)heptan-4-ol] were 0.33 mg/kg and “concentration-dependent inhibition”.
Consider `NCCCc1cccc(C#CC2(O)CCCC2)c1` [Example 24, 1-((3-(3-Aminopropyl)phenyl)ethynyl)cyclopentanol], for which the inhibition in vivo at 1 mg/kg reads like this: (4 h) 0%; (24 h) 0%. Also, the inhibition in vivo at 5 mg/kg reads like this: (4 h) 27%; (24 h) 0%.
Regarding `CC(C)(C)C(C)(O)C#Cc1cccc(CCCN)c1` (stereo not shown) [Example 25, 1-(3-(3-Aminopropyl)phenyl)-3,4,4-trimethylpent-1-yn-3-ol], the inhibition in vivo at 1 mg/kg (4 h) amounted to 1% and the inhibition in vivo at 1 mg/kg (24 h) is 0%.
In the same order, the values of `NCCCc1cccc(C#C[C@@H](O)c2ccccc2)c1` [Example 26, (S)-3-(3-(3-Aminopropyl)phenyl)-1-phenylprop-2-yn-1-ol] are 18% and 0%.
Regarding `CCC(O)(C#Cc1cccc(OCCN)c1)CC` [Example 27, 1-(3-(2-Aminoethoxy)phenyl)-3-ethylpent-1-yn-3-ol], the inhibition in vivo at 1 mg/kg (4 h) was determined as 7% and the inhibition in vivo at 1 mg/kg (24 h) was found to be 6%. Also, the inhibition in vivo at 5 mg/kg is, setting by setting: (4 h) 65%; (24 h) 0%.
Take `CC(C)C(O)(C#Cc1cccc(OCCN)c1)C(C)C` [Example 28, 1-(3-(2-Aminoethoxy)phenyl)-3-isopropyl-4-methylpent-1-yn-3-ol]: the inhibition in vivo at 1 mg/kg (4 h) worked out at 27% and the inhibition in vivo at 1 mg/kg (24 h) came to 0%.
In the same order, the values of `NCCOc1cccc(C#CC2(O)CCCC2)c1` [Example 31, 1-((3-(2-Aminoethoxy)phenyl)ethynyl)cyclopentanol] are 18% and 0%.
Regarding `CC(C)C(O)(C#Cc1cccc(CCCN)c1)C(C)C` [Example 32, 1-(3-(3-Aminopropyl)phenyl)-3-isopropyl-4-methylpent-1-yn-3-ol], the inhibition in vivo at 1 mg/kg is, setting by setting: (4 h) 75%; (24 h) 14%.
Consider `COc1ccccc1C#Cc1cccc(CCCN)c1` [Example 36, 3-(3-((2-Methoxyphenyl)Ethynyl)Phenyl)Propan-1-Amine], for which the “isomerase inhibitory activity” value was “inactive” (1 mg/kg single oral dose) and “full recovery” (5 mg/kg single oral dose, at 24 h). The inhibition at 1 mg/kg runs as follows: (1 mg/kg single oral dose, 2 h) 6%; (1 mg/kg single oral dose, 6 h) 5%; (1 mg/kg single oral dose, 24 h) 0%. For the same compound, the inhibition at 5 mg/kg is, setting by setting: (5 mg/kg single oral dose, 2 h) 46%; (5 mg/kg single oral dose, 6 h) 45%; (5 mg/kg single oral dose, 24 h) 0%.
As to `NCCCc1cccc(C#Cc2ccccc2)c1` [Example 37, 3-(3-(Phenylethynyl)phenyl)propan-1-amine], the inhibition in vivo at 1 mg/kg runs as follows: (4 h) 23%; (24 h) 9%. Moreover, the inhibition in vivo at 5 mg/kg is 73% (4 h) and 0% (24 h).
Taken in the same sequence, the figures for `NCCCc1cccc(C#CC2CCCC2)c1` [Example 38, 3-(3-(Cyclopentylethynyl)phenyl)propan-1-amine] were 0%, 0%, 8% and 1%.
